According to publication PMC6562672, “Dose-Dependent Sorafenib-Induced Immunosuppression Is Associated with Aberrant NFAT Activation and Expression of PD-1 in T Cells” (Cancers, 2019):
Where two headings read alike, the source gives them in different places.

Columns and labels:
human T cells = experiment: One-way mixed lymphocyte reaction (MLR), human T cells, CFSE; assay type: cell-based; details: high dose (10 µM), 96 h
Description: Flow cytometry acquisition and compensation was performed on a LSR Fortessa (BD Biosciences, San Jose, CA, USA). Analysis of listmode data was performed using Winlist 8.0 (Verity Software House, Inc., Topsham, ME, USA). Briefly, the viable responder lymphocytes were hierarchically gated for single, low side scatter, viable cells with absent CD45 labeling. The percentage of proliferating cells was determined based on CFSE dye dilution compared to the CFSE labeling intensity from the non-proliferating MLR negative control sample. The full list of antibodies and reagents used in assays is available in Table S1.
Mixed lymphocyte reactions were performed in human (human vs. human, Figure 1E) and woodchucks (woodchuck vs. human, Figure 1F). 10 mL peripheral blood from healthy donors and 3 mL woodchuck peripheral blood isolated. Stimulator cells (human cells for both assays) were irradiated at 40 Gy in a Mark I Cesium-137 irradiator for 20 min. Following irradiation, cells were stained for CD45-APC (BD Biosciences, San Jose, CA, USA). Responder cells (non-irradiated human or woodchuck cells) were labeled with CFSE (Thermo Fisher Scientific, Eugene, OR, USA). Target and responder cells were placed in a round bottom 96 well polypropylene plate at a 2:1 ratio in the presence of 0–10 µM sorafenib and incubated at 37 °C for 96 h. […]

[1] = Plasma pharmacokinetics of oral sorafenib in woodchucks (LC-MS/MS, noncompartmental analysis); assay type: in vivo, woodchuck (Marmota monax); details: for AUC / Cmax / Tmax: plasma, po; for AUC / Cmax / Tmax / Cmax/D, Geo Mean (%CV): woodchuck plasma; for Cmax: read-out: Cmax, Geo Mean (%CV); for Tmax: read-out: Tmax, Geo Mean (%CV)
Description: Woodchuck plasma study samples were analyzed for sorafenib with an LC-MS/MS assay using authentic standards of sorafenib and the internal standard (IS), d3-sorafenib, both obtained from Toronto Research Chemicals (Toronto, ON, Canada). Study samples were quantitated using calibration and quality control (QC) samples prepared by spiking sorafenib into sodium heparinized human plasma (Bioreclamation, LLC, Westbury, NY, USA). The woodchuck plasma study samples were extracted using a Quadra 4 SPE Automated Liquid Handling System (Tomtec Inc., Hamden, CT, USA) by mixing a 50 µL aliquot of a calibrator, QC, plasma blank, or study sample with 500 µL of ice cold acetonitrile containing the IS for the LC-MS/MS. LC-MS/MS analysis was performed using a Finnigan Surveyor MS Pump Plus and Thermo Pal Autosampler System interfaced with a TSQ Quantum Ultra Mass Spectrometer, all obtained from Thermo Fisher Scientific (Waltham, MA, USA). A noncompartmental pharmacokinetic analysis (NCA) was performed on individual concentration-time data using a linear trapezoidal, linear/log interpolation calculation method with uniform weighting. The software program utilized for this analysis was Phoenix 64 WinNonlin Version 6.3 (Pharsight Corp., St. Louis, MO, USA). Study sample (n = 9) concentrations that were above the lower limit of quantitation (LLOQ) of the assay (62.5 ng/mL) following dose administration (Day 1: pre-dose and 1, 3, 5, 7 and 24 h; Day 19: pre-dose and 1, 3, 5, and 7 h) were used in the NCA.
(§1) All WHV carrier woodchucks were randomly divided into three groups such as placebo, low dose (2.5 mg/kg/day), and high dose (5.0 mg/kg/day) groups (n = 5 animals/group) in a long-term efficacy study based on clinical and preclinical studies. Also, a compartmental pharmacokinetic (PK) model was used to select the two lowest doses that can achieve exposure sufficient to inhibit pharmacodynamic targets. Experimental woodchucks were treated with placebo, 2.5 mg/kg, or 5.0 mg/kg sorafenib once daily with a 5 days on and 2 days off schedule. Animals were dosed orally until tumor development. Another experiment was performed with the low (2.5 mg/kg/day) and high (5.0 mg/kg/day) dose groups (n = 3 animals/group) to see the efficacy of short-term (90 days treatment) usage of sorafenib. The primary endpoint of the in vivo study was disease free survival (DFS), and DFS was measured from the date of randomization until the date of any liver tumor detection. The secondary endpoint was tumor size over 2 cm, which was measured from the date of first tumor detection. All experimental protocols were approved by IACUC.

HCC = experiment: Efficacy against HCC in WHV-infected woodchucks (ultrasound); assay type: in vivo, woodchuck (Marmota monax); details: for median time from first detection of tumor to 2 cm HCC: placebo 55 days; for median time to tumor development: long-term, placebo 295 days, p = 0.35
From the text: Male and female eastern woodchucks (Marmota monax) from two different institutes were used. WHV-infected woodchucks from Cornell University (15) were used for a long-term efficacy study, and six woodchucks in a short-term efficacy study were bred at Roswell Park Comprehensive Cancer Institute Center. Woodchucks were infected at 3–5 days of age with dilute serum from standard infectious pools derived from WHV carriers. Pups were inoculated with diluted, pooled serum from WHV^+ animals. The inoculum was prepared from pooled serum of WHV^+ animals that is diluted aseptically 1:10 in PBS. In a biological safety cabinet, each pup is manually restrained and 100 microliters of inoculum is injected subcutaneously in the intrascapular region. Chronic infection was verified at approximately 3, 6, and 9 months of age by WHV viral titer status. Once the pups are confirmed WHV positive, they were monitored by ultrasound (Philips HDI 5000, Amsterdam, The Netherlands) to confirm the presence of HCC.
In total, 21 animals bearing one or more liver tumors were included in this study for 2 separate experiments. While receiving sorafenib or placebo, animals were monitored with ultrasound every 2 weeks for tumor development greater than 5 mm in diameter. […] Tumor volume was calculated using this formula: volume = shortest axis^2 × longest axis × 0.52.
as §1

[2] = 2.5 mg/kg, oral 2.5 mg/kg, Day 1
[3] = 2.5 mg/kg, oral 2.5 mg/kg, Day 19
[4] = 5 mg/kg, oral 5.0 mg/kg, Day 19

Question: For `CNC(=O)c1cc(Oc2ccc(NC(=O)Nc3ccc(Cl)c(C(F)(F)F)c3)cc2)ccn1` [sorafenib, Sorafenib], which “MLR response (T cell proliferation)” value (human T cells) is on record?
Answer: significant decrease

Question: What about the “Cmax/D of high dose group relative to low dose group” value ([1]; 5.0 vs 2.5 mg/kg, Day 1) of the same molecule?
Answer: ~ 8 times

Question: And the “Cmax/D of high dose group compared with low dose group” value ([1]; 5.0 vs 2.5 mg/kg, Day 19)?
Answer: the same

Question: What about the AUC ([1]; 2.5 mg/kg, oral 2.5 mg/kg, Day 1, read-out: AUC1–7 h, Geo Mean (%CV)) of the same molecule?
Answer: 588 ng·h/mL

Question: And the AUC ([1]; 2.5 mg/kg, oral 2.5 mg/kg, Day 1, read-out: AUCAll, Geo Mean (%CV))?
Answer: 2600 ng·h/mL

Question: What about the Cmax [1, 2] of the same molecule?
Answer: 136 ng/mL

Question: What about the Tmax [1, 2] of the same molecule?
Answer: 5.92 h

Question: And the AUC ([1]; 2.5 mg/kg, oral 2.5 mg/kg, Day 19, read-out: AUC1–7 h, Geo Mean (%CV))?
Answer: 26800 ng·h/mL

Question: What about the AUC ([1]; 2.5 mg/kg, oral 2.5 mg/kg, Day 19, read-out: AUCAll, Geo Mean (%CV)) of the same molecule?
Answer: 30300 ng·h/mL

Question: What about the Cmax [1, 3] of the same molecule?
Answer: 4970 ng/mL

Question: And the Tmax [1, 3]?
Answer: 4.22 h

Question: What about the AUC ([1]; 5 mg/kg, oral 5.0 mg/kg, Day 1, read-out: AUC1–7 h, Geo Mean (%CV)) of the same molecule?
Answer: 5960 ng·h/mL

Question: And the AUC ([1]; 5 mg/kg, oral 5.0 mg/kg, Day 1, read-out: AUCAll, Geo Mean (%CV))?
Answer: 21000 ng·h/mL

Question: And the Cmax ([1]; 5 mg/kg, oral 5.0 mg/kg, Day 1)?
Answer: 1170 ng/mL

Question: And the Tmax ([1]; 5 mg/kg, oral 5.0 mg/kg, Day 1)?
Answer: 3.98 h

Question: And the AUC ([1]; 5 mg/kg, oral 5.0 mg/kg, Day 19, read-out: AUC1–7 h, Geo Mean (%CV))?
Answer: 39100 ng·h/mL

Question: And the Cmax [1, 4]?
Answer: 7380 ng/mL

Question: And the Tmax [1, 4]?
Answer: 3.98 h

Question: And the “Cmax/D, Geo Mean (%CV)” value ([1]; oral 2.5 mg/kg, Day 1)?
Answer: 2, 54.4 (3.41) (ng/mL)/(mg/kg)

Question: What about the “Cmax/D, Geo Mean (%CV)” value ([1]; oral 2.5 mg/kg, Day 19) of the same molecule?
Answer: 3, 1990 (19.8) (ng/mL)/(mg/kg)

Question: What about the “Cmax/D, Geo Mean (%CV)” value ([1]; oral 5.0 mg/kg, Day 1) of the same molecule?
Answer: 3, 433 (75.8) (ng/mL)/(mg/kg)

Question: What about the “Cmax/D, Geo Mean (%CV)” value ([1]; oral 5.0 mg/kg, Day 19) of the same molecule?
Answer: 3, 2000 (54.5) (ng/mL)/(mg/kg)

Question: What about the “median time from first detection of tumor to 2 cm HCC” value (HCC; 2.5 mg/kg) of the same molecule?
Answer: 111 days

Question: And the “median time from first detection of tumor to 2 cm HCC” value (HCC; 5 mg/kg)?
Answer: 42 days

Question: What about the “median time to tumor development” value (HCC; high dose 5.0 mg/kg/day) of the same molecule?
Answer: 351 days

Question: What about the tumor growth delay (HCC; high dose vs placebo, p = 0.5) of the same molecule?
Answer: failed to show any tumor growth delay effect

Question: And the “animals that developed HCC” value (HCC; long-term treatment, regardless of doses of sorafenib (15 woodchucks incl. placebo))?
Answer: 100%

Question: What about the “tumor size when first detected by ultrasound” value (HCC; low dose 2.5 mg/kg/day compared to placebo and high dose groups) of the same molecule?
Answer: smaller

Question: And the “median time to tumor development” value (HCC; low dose 2.5 mg/kg/day)?
Answer: 384 days

Question: What about the tumor growth delay (HCC; low dose vs placebo and high dose, p = 0.024) of the same molecule?
Answer: significant tumor growth delay

Question: And the “tumor growth delay with low dose compared to high dose” value (HCC; short-term usage, 90 days, n = 3/group)?
Answer: not achieved

Question: What about the “prevention of HCC and inhibition of WHV replication” value (HCC; sorafenib treatments compared to placebo) of the same molecule?
Answer: did not prevent HCC or inhibit WHV replication
